For 14 compounds, IC50 results are on record in patent US20240262793A1, “QUINAZOLINE COMPOUND, AND PREPARATION METHOD THEREFOR AND APPLICATION THEREOF” (SHANGHAI PHARMACEUTICALS HOLDING CO., LTD., priority 2021, published 2024).

Assay type in all cases: cell-based
What all share (conditions): Homo sapiens, THP-1, Table 7, PMA 50 ng/mL, LPS 100 ng/mL

One experiment has as its system IL-1β. In words: Inhibition of IL-1β in PMA-differentiated, LPS-stimulated THP-1 cells (ELISA of cell lysate). The protocol: (§1) (1) Cell culture and inoculation: A stock solution of PMA at 1 mg/mL was diluted with serum-free RP1640 medium to prepare a 100 ng/mL PMA solution. Normal cultured THP-1 cells were centrifuged, resuspended in a complete medium (RP1640 medium containing 10% FBS), and counted. The cell density was adjusted to 2×10^6 cells/mL. An equal volume of 100 ng/mL PMA solution was then added, resulting in a cell density of 1×10^6 cells/mL and a final PMA concentration of 50 ng/mL. 100 μL of the cell suspension was seeded into each well of a 96-well cell culture plate with 1×10^5 cells per well. The 96-well cell culture plate was then incubated at 37° C. in a 5% CO2 atmosphere for 24 hours.
(§2) (2) Drug treatment of cells: On the second day, LPS was added to the complete medium to adjust the final concentration to 100 ng/mL, and the compound was prepared using this LPS-containing medium. The compound was added to the appropriate cell wells according to the prepared concentration gradient. The positive control group (LPS+) was a culture medium solution containing a final concentration of 100 ng/mL LPS and 0.1% DMSO without drugs, while the negative control group (LPS-) was a culture medium solution containing 0.1% DMSO without LPS. The volume in each well was 100 μL.
(§3) (3) Test sample collection: The mixture was centrifuged at 1000 rpm for 5 minutes and the cell supernatant and cell precipitate were collected separately. The cell supernatant was used to detect TNF-α and IL-6, and the cell precipitate was collected for IL-1β detection. After collecting the cell supernatant, the remaining liquid in the wells was discarded and 100 μL of cell lysis solution (20 mM Tris 8.0; 2 mM EDTA; 0.5% Triton X-100) was added to each well for complete lysis.
(§4) (4) Sample detection: The enzyme-linked immunosorbent assay (ELISA) was used to detect the content of each cytokine. The specific steps were performed according to the instructions provided in the corresponding kit manuals. The catalog numbers of kits are as follows: • Human TNF-alpha Quantikine ELISA Kit, Catalog # STA00D • Human IL-1 beta/IL-1F2 Quantikine ELISA Kit, Catalog # SLB50 • Human IL-6 Quantikine ELISA Kit, Catalog # S6050.
(§5) (5) Data analysis: The in vitro inhibitory activity of the compounds was calculated using the following formula: […]
A general note: In an ELISA, binding on a coated surface is turned into a signal by an enzyme label.

The test system of the next experiment is TNF-α. As to the kind of experiment: Inhibition of TNF-α in PMA-differentiated, LPS-stimulated THP-1 cells (ELISA of cell supernatant). The protocol:
as §1, §2, §3, §4, §5

For a further experiment, the system named is IL-6. In words: Inhibition of IL-6 in PMA-differentiated, LPS-stimulated THP-1 cells (ELISA of cell supernatant). The protocol: as §1, §2, §3, §4, §5

The term IC50 denotes the concentration needed to halve the response being measured.

On to `COc1ccc(CN(CCO)CCCC(C)Nc2ccnc3cc(Cl)ccc23)cc1F` (stereo not drawn) [Example 31, 2-((4-((7-Chloroquinolin-4-yl)amino)pentyl)(3-fluoro-4-methoxybenzyl)amino)ethan-1-ol], for which the IC50 with IL-1β was 8.64 µM; with TNF-α, 7.13 µM; in the experiment with IL-6 it was 1.31 µM.

As for `CC(CCCN(CCO)Cc1ccccc1)Nc1ncnc2cc(Cl)ccc12` (stereo not drawn) [Example 34, 2-(Benzyl(4-((7-chloroquinazolin-4-yl)amino)pentyl)amino)ethan-1-ol], the IC50 in the experiment on IL-1β is 36.6 µM; with TNF-α it was 33.4 µM; with IL-6, 3.16 µM.

`CC(CCCN(CCO)Cc1ccccc1)Nc1ncnc2cc(F)ccc12` (stereo not drawn) [Example 35, 2-(Benzyl(4-((7-fluoroquinazolin-4-yl)amino)pentyl)amino)ethan-1-ol]: the IC50 with IL-1β is 5.66 µM; in the experiment with TNF-α, 20.1 µM; in the experiment on IL-6 it was 0.82 µM.

On to `COC(=O)c1ccc(CN(CCO)CCCC(C)Nc2ncnc3cc(Cl)ccc23)cc1` (stereo not drawn) [Example 36, Methyl 4-(((4-((7-chloroquinazolin-4-yl)amino)pentyl)(2-hydroxyethyl)amino)methyl)benzoate], for which the concentration for half-maximal inhibition (IC50) amounted to 17.2 µM in the experiment with IL-1β, 6.86 µM in the experiment with TNF-α and 1.05 µM in the experiment with IL-6.

As to `COc1ccc(CN(CCO)CCCC(C)Nc2ncnc3cc(Cl)ccc23)cc1F` (stereo not drawn) [Example 37], the figures for the IC50 in the experiment on IL-1β, in the experiment with TNF-α and with IL-6 were 41.8 µM, 4.88 µM and 0.18 µM, respectively.

For `CC(CCCN(CCO)Cc1ccc(-n2cccn2)cc1)Nc1ncnc2cc(Cl)ccc12` (stereo not drawn) [Example 39], the IC50 in the experiment on IL-1β was 7.4 µM; in the experiment on TNF-α it was 7.89 µM; with IL-6 it was 0.77 µM.

As for `CC(CCCN(CCO)Cc1ccc(S(C)(=O)=O)cc1)Nc1ncnc2cc(Cl)ccc12` (stereo not drawn) [Example 40], the IC50 amounted to 0.7 µM in the experiment on IL-1β, 10.1 µM with TNF-α and 0.6 µM with IL-6.

`COC(=O)c1ccc(CN(CCO)CCCC(C)Nc2ccnc3cc(F)ccc23)cc1` (stereo not drawn) [Example 42]: the IC50 was found to be 3.31 µM with IL-1β, 6.56 µM with TNF-α and 2.84 µM in the experiment with IL-6.

For the compound `CC(CCCN(CCO)Cc1ccc(OC(F)(F)F)cc1)Nc1ccnc2cc(F)ccc12` (stereo not drawn) [Example 43], the IC50 in the experiment with IL-1β came out at 33.8 µM; with TNF-α, 4.01 µM; in the experiment with IL-6 it was 1.57 µM.

Take `COC(=O)c1ccc(CN(CCO)CCCCCNc2ncnc3cc(Cl)ccc23)cc1` [Example 44, Methyl 4-(((5-((7-chloroquinazolin-4-yl)amino)pentyl)(2-hydroxyethyl)amino)methyl)benzoate]: the IC50 in the experiment on IL-1β turned out to be 21.1 µM; with TNF-α, 19.9 µM; with IL-6, 0.77 µM.

For the compound `OCCN(CCCCCNc1ncnc2cc(Cl)ccc12)Cc1ccc(OC(F)(F)F)cc1` [Example 45, 2-((5-((7-Chloroquinazolin-4-yl)amino)pentyl)(4-(trifluoromethoxy)benzyl)amino)ethan-1-ol], the IC50 in the experiment with IL-1β turned out to be 10.3 µM; in the experiment on TNF-α, 12.6 µM; in the experiment with IL-6 it was 1.09 µM.

As for `OCCN(CCCCNc1ncnc2cc(Cl)ccc12)Cc1ncco1` [Example 47, 2-((4-((7-Chloroquinazolin-4-yl)amino)butyl)(oxazol-2-ylmethyl)amino)ethan-1-ol], the IC50 in the experiment on IL-1β came to 1 µM; in the experiment on TNF-α, 58.1 µM; with IL-6, 1.94 µM.

As to `OCCN(CCCCCNc1ncnc2cc(F)ccc12)Cc1ncco1` [Example 48, 2-((5-((7-Fluoroquinazolin-4-yl)amino)pentyl)(oxazol-2-ylmethyl)amino)ethan-1-ol], the IC50 in the experiment with IL-1β turned out to be 49.6 µM; with TNF-α, 14.8 µM; with IL-6, 0.91 µM.

On to `CS(=O)(=O)c1ccc(CN(CCO)CCCCCNc2ncnc3cc(F)ccc23)cc1` [Example 49], for which the IC50 turned out to be 48.2 µM in the experiment with IL-1β, 18.5 µM in the experiment on TNF-α and 1.15 µM in the experiment with IL-6.
